Results taken from US3968214A, “5-Methylthio-pyrimidine vasodilators” (Produits Chimiques Ugine Kuhlmann, priority 1973, dated 1976).
Where two headings read alike, the source gives them in different places.

Assays:
[1] = Acute toxicity in mice, intravenous and oral (LD50); format: in vivo; details: mouse, in vivo
Text: The acute toxicities of the compounds according to the invention have been determined CD 1 mice (Charles RIVER) by intravenous and oral methods. The LD50 calculated by the quantal cumulative method of J. J. Reed and H. Muench (Amer. J. Hyg. 1938, 27, 493) are collected in the following Table: […]

[2] = test system: isolated duodenum of rabbit, contractions caused by acetylcholine; test: Spasmolytic activity, neurotrope versus acetylcholine, isolated duodenum (Magnus)
Text: (§1) The spasmolytic activities are known by means of the technique of R. Magnus (Arch. Ges. Physiol., 1904, 102, 123) on the isolated duodenum of rabbits. The spasmolytic neurotropes inhibit the contractions of the organ caused by acetylcholine, while the musculotropes prevent the spasms induced by barium chloride. The EC 50 expressed in mg/litre are collected in the following Table where EC denotes "Effective concentration".

[3] = test system: isolated duodenum of rabbit, spasms induced by barium chloride; test: Spasmolytic activity, musculotrope versus BaCl2, isolated duodenum (Magnus)
Text: as §1

isolated rabbit heart = test: Coronaro-dilatatory activity, isolated heart (Langendorff modified by Anderson); details: for coronaro-dilatatory activity (in words): isolated rabbit heart
Text: The technique of Langendorff, modified by F. E. Anderson, (J. Pharmacol. exp. Therap., 1948, 91, 135) using isolated rabbit heart permits the coronaro-dilatatory activity of the products to be studied. In this text, the cardiac perfusion liquid contains 0.5 UI/1 of posthypophysis. The results are expressed in the percentage variation of the coronary flow after affusion of the product to be tested, compared with the initial flow.

[4] = test system: abdominal spasms caused in mice by 2-phenyl-1,4-benzoquinone; test: Analgesic activity: abdominal spasms caused by intraperitoneal 2-phenyl-1,4-benzoquinone (P.B.Q.); format: in vivo; details: for ED50: Mus musculus, mice, oral, read-out: Analgesic activity P.B.Q. AD 50; for analgesic activity (in words): given orally to mice
Text: The analgesic activities have been investigated with respect to abdominal spasms caused in mice by the intraperitoneal injection of 2-phenyl-1,4-benzoquinone according to E. Siegmund, E. Cadmus and G. Lu, Proc. Soc. exp. Biol. Med., 1957, 95, 729-731. The central antiserotonin properties have been determined by the "Head-twitch" technique in mice according to S. J. Corne, R. W. Pickering and B. T. Warner, Brit. J. Pharmacol., 1963, 20, 106-120. In this test, the antiserotonin products inhibit the sudden shaking of the head induced in mice by 5-hydroxy-tryptophan, the biological precursor of serotonin.

[5] = intravenous, read-out: Acute toxicity to mice LD 50, intravenous
[6] = oral, read-out: Acute toxicity to mice LD 50, orally

| Compound | LD50 [1, 5] [mg/kg] | LD50 [1, 6] [mg/kg] | Spasmolytic activity EC 50, neurotrope versus acetylcholine [2] [mg/L] | Spasmolytic activity EC 50, musculotrope versus BaCl2 [3] [mg/L] | further results |
| --- | --- | --- | --- | --- | --- |
| CCN(CC)CCNc1nc(N(C)C)nc(Cl)c1SC [Example 1, 2-dimethylamino-4-(2'-diethylamine)ethylamino-5-methylthio-6-chloropyrimidine] | 53 | 200 | 5.50 | 1.40 |  |
| CCN(CC)CCNc1nc(N(C)Cc2ccccc2)nc(Cl)c1SC [Example 4, 2-N-methyl-N-benzylamino-4-(2'-diethylamino)-ethylamino-5-methylthio-6-chloro-pyrimidine] | 45 | 525 | 0.30 | 0.06 | neurotropic spasmolytic activity (in words) [2]: necessary to call attention; musculotropic EC 50 [3]: less than 0.1 mg/liter; musculotropic spasmolytic activity (in words) [3]: quite remarkable activities; Increase of the coronary flow (isolated rabbit heart; dose 0.003 mg): 8%; Increase of the coronary flow (isolated rabbit heart; dose 0.01 mg): 28%; Increase of the coronary flow (isolated rabbit heart; dose 0.03 mg): 41%; Increase of the coronary flow (isolated rabbit heart; dose 0.10 mg): 135%; coronaro-dilatatory activity (in words) (isolated rabbit heart): interesting coronaro-dilatatory activities |
| CSc1c(Cl)nc(N(C)c2ccccc2)nc1NCCN(C)C [Example 7, 2-N-methyl-N-phenyl-amino-4-(2'-dimethyl-amino)-ethylamino-5-methylthio-6-chloro-pyrimidine] | 80 | 200 | 1.20 | 0.16 | ED50 [4]: 60 mg/kg; analgesic activity (in words) [4]: marked analgesic activity; Increase of the coronary flow (isolated rabbit heart; dose 0.003 mg): 38%; Increase of the coronary flow (isolated rabbit heart; dose 0.01 mg): 40%; Increase of the coronary flow (isolated rabbit heart; dose 0.03 mg): 37%; Increase of the coronary flow (isolated rabbit heart; dose 0.10 mg): 77%; coronaro-dilatatory activity (in words) (isolated rabbit heart): interesting coronaro-dilatatory activities |
| CSc1c(Cl)nc(N(C)C)nc1NCCN(C)C [Example 8, 2-dimethylamino-4-(2'-dimethylamino)-ethylamino-5-methylthio-6-chloro-pyrimidine] | 57 | 525 | 4.90 | 2.80 |  |
| CSc1c(Cl)nc(N2CCOCC2)nc1NCCN(C)C [Example 9, 2-morpholino-4-(2'-dimethylamino)-ethyl-amino-5-methylthio-6-chloro-pyrimidine] |  | 400 | 3.00 | 1.90 |  |
| CCOC(=O)CN(C)c1nc(Cl)c(SC)c(NCCN(C)C)n1 [Example 10, 2-N-methyl-N-(ethoxycarbonylmethyl)-amino-4-(2'-dimethylamino)-ethylamino-5-methylthio-6-chloro-pyrimidine] | 79 | 900 | 0.50 | 0.50 | neurotropic spasmolytic activity (in words) [2]: necessary to call attention |
| CSc1c(Cl)nc(N(C)Cc2ccccc2)nc1NCCN(C(C)C)C(C)C [Example 11, 2-N-methyl-N-benzylamino-4-(2'-di-isopropyl-amino)-ethylamino-5-methylthio-6-chloro-pyrimidine] | 60 | 675 | 3.50 | 0.02 | musculotropic EC 50 [3]: less than 0.1 mg/liter; musculotropic spasmolytic activity (in words) [3]: quite remarkable activities; Increase of the coronary flow (isolated rabbit heart; dose 0.001 mg): 168%; Increase of the coronary flow (isolated rabbit heart; dose 0.003 mg): 172%; coronaro-dilatatory activity (in words) (isolated rabbit heart): interesting coronaro-dilatatory activities |
| CSc1c(Cl)nc(N(C)c2ccc(C)cc2)nc1NCCN(C(C)C)C(C)C [Example 14, 2-N-methyl-N(4-methyl-phenyl)amino-4-(2'-diisopropylamino)-ethylamino-5-methylthio-6-chloro-pyrimidine] | 92 | 900 | 0.08 | 0.04 | neurotropic spasmolytic activity (in words) [2]: necessary to call attention; musculotropic EC 50 [3]: less than 0.1 mg/liter; musculotropic spasmolytic activity (in words) [3]: quite remarkable activities; Increase of the coronary flow (isolated rabbit heart; dose 0.003 mg): 104%; Increase of the coronary flow (isolated rabbit heart; dose 0.01 mg): 140%; Increase of the coronary flow (isolated rabbit heart; dose 0.03 mg): 168%; coronaro-dilatatory activity (in words) (isolated rabbit heart): interesting coronaro-dilatatory activities |
| CCOC(=O)CN(C)c1nc(Cl)c(SC)c(NCCN(C(C)C)C(C)C)n1 [Example 15, 2-N-methyl-N-(ethoxycarbonylmethyl)-amino-4-(2'-diisopropylamino)-ethylamino-5-methyl-thio-6-chloro-pyrimidine] | 63 | > 900 |  | 0.05 | musculotropic EC 50 [3]: less than 0.1 mg/liter; musculotropic spasmolytic activity (in words) [3]: quite remarkable activities; Increase of the coronary flow (isolated rabbit heart; dose 0.003 mg): 16%; Increase of the coronary flow (isolated rabbit heart; dose 0.01 mg): 24%; Increase of the coronary flow (isolated rabbit heart; dose 0.03 mg): 44%; Increase of the coronary flow (isolated rabbit heart; dose 0.10 mg): 28%; coronaro-dilatatory activity (in words) (isolated rabbit heart): interesting coronaro-dilatatory activities |
| CCN(CC)CCNc1nc(N(C)c2ccc(C)cc2)nc(Cl)c1SC [Example 19, 2-N-methyl-N(4-methyl-phenyl)amino-4-(2'-diethylamino)-ethylamino-5-methyl-thio-6-chloro-pyrimidine] |  | ~675 |  |  |  |
| CCN(CC)CCNc1nc(N(C)c2ccc(OC)c(OC)c2)nc(Cl)c1SC [Example 20, 2-N-methyl-N(3,4-dimethoxy-phenyl)amino-4-(2'-diethylamino)-ethylamino-5-methylthio-6-chloro-pyrimidine] |  | 400 |  |  |  |
| COc1ccc(N(C)c2nc(Cl)c(SC)c(NCCN(C(C)C)C(C)C)n2)cc1OC [Example 21, 2-N-methyl-N(3,4-dimethoxy-phenyl)amino-4-(2'-diisopropylamino)-ethylamino-5-methylthio-6-chloro-pyrimidine] |  | ~600 |  |  |  |
| CSc1c(Cl)nc(N(C)c2ccc(Cl)cc2)nc1NCCN1CC(C)OC(C)C1 (centres unmarked) [Example 22, 2-N-methyl-N-(4-chloro-phenyl)amino-4-(2'-2,6-dimethyl-morpholino)-ethylamino-5-methylthio-6-chloro-pyrimidine] |  | > 900 |  |  |  |
| CSc1c(NCCN(C)C)nc(N(C)C)nc1OCc1cccnc1 [Example 23, 2-N-dimethyl-amino-4-(2'-dimethylamino)-ethylamino-5-methyl-thio-6-(3-pyridyl)-methoxy-pyrimidine] | 22 | 175 | 8.60 | 1.00 |  |
| CCN(CC)CCNc1nc(N(C)c2ccc(Cl)cc2)nc(OC)c1SC [Example 25, 2-N-methyl-N(4-chloro-phenyl)amino-4-(2'-diethylamino)-ethylamino-5-methylthio-6-methoxy-pyrimidine] |  | ~600 |  |  |  |
| COc1nc(N(C)c2ccccc2)nc(NCCN(C)C)c1SC [Example 26, 2-N-methyl-N-phenyl-amino-4-(2'-dimethylamino)-ethylamino-5-methylthio-6-methoxy-pyrimidine] | 70 | 225 |  |  | ED50 [4]: 65 mg/kg |
| COc1nc(N(C)Cc2ccccc2)nc(NCCN(C(C)C)C(C)C)c1SC [Example 27, 2-N-methyl-N-benzyl-amino-4-(2'-diiso-propyl-amino)-ethylamino-5-methyl-thio-6-methoxy-pyrimidine] | 18.5 | 600 |  | 0.08 | ED50 [4]: 95 mg/kg; analgesic activity (in words) [4]: marked analgesic activity; musculotropic EC 50 [3]: less than 0.1 mg/liter; musculotropic spasmolytic activity (in words) [3]: quite remarkable activities |
| COc1ccc(N(C)c2nc(NCCN(C(C)C)C(C)C)c(SC)c(OC)n2)cc1OC [Example 28, 2-N-methyl-N-(3,4-dimethoxy-phenyl)-amino-4-(2'-diisopropyl-amino)-ethyl-amino-5-methylthio-6-methoxy-pyrimidine] |  | ~200 |  |  |  |
| COc1nc(N2CCCCC2)nc(NCCN(C(C)C)C(C)C)c1SC [Example 29, 2-piperidino-4-(2'-diisopropyl-amino)-ethylamino-5-methylthio-6-methoxy-pyrimidine] |  | ~200 |  |  |  |
| CCCCOc1nc(N(C)Cc2ccccc2)nc(NCCN(C(C)C)C(C)C)c1SC [Example 31, 2-N-methyl-2-N-benzylamino-4-(2'-di-isopropyl-amino)-ethylamino-5-methylthio-6-butoxy-pyrimidine] |  | ~675 |  |  |  |
| CCCCOc1nc(N(C)c2ccccc2)nc(NCCN(C(C)C)C(C)C)c1SC [Example 32, 2-N-methyl-N-phenylamino-4-(2'-diiso-propyl-amino)-ethylamino-5-methyl-thio-6-butoxy-pyrimidine] |  | ~525 |  |  |  |
